biological target: T1, human ASK1 (Homo sapiens, UniProt Q99683); experiment: Scintillation assay measuring inhibition of ASK1 phosphorylation of myelin basic protein; assay type: biochemical; settings: active ASK1 protein 30 ng, myelin basic protein 1 μg, [γ-32P]ATP, room temperature 30 min; values given as ranges; read-out: Enzyme Activity IC50
T1 construct: a 2.2 kb DNA fragment containing an ASK1 gene was recovered from the gel; made in house; host or cells: Sf-21 insect cells, recombinant baculovirus (pFASTBAC1, Bac-to-Bac)
T1 sequence (Q99683 649-1374 limits assumed): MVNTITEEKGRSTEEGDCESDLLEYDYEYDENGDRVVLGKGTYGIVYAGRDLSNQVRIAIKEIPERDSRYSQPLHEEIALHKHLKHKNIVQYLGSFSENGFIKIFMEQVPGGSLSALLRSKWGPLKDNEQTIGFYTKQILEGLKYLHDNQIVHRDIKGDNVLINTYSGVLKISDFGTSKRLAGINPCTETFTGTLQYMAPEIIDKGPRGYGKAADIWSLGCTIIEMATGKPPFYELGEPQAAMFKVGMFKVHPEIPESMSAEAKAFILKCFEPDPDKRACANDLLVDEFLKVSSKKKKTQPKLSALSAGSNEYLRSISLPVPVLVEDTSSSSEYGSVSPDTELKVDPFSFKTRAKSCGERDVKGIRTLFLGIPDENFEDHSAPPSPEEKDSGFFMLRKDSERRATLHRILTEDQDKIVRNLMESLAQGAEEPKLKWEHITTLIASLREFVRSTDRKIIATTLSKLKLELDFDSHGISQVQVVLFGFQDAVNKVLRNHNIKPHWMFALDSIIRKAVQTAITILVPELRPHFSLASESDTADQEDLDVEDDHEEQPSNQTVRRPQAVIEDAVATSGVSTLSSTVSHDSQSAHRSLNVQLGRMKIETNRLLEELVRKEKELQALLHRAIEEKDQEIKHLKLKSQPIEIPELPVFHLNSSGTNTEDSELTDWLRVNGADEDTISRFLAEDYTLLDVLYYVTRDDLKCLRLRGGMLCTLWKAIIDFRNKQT
Experimental: Cloning of cDNA encoding human ASK1 was conducted by PCR using primers, 5′-[…] AGAGAAGGGGA-3′ (SEQ ID NO: 1) and 5′-[…]-3′ (SEQ ID NO: 2), from human heart cDNA library (Becton, Dickinson and Company). The PCR product was subjected to agarose gel (1%) electrophoresis, a 2.2 kb DNA fragment containing an ASK1 gene was recovered from the gel, and then digested with restriction enzymes, NotI and SalI, and inserted into a plasmid pFASTBAC1 (Invitrogen) to prepare a plasmid pFB-ASK1. The insert was verified by sequencing. Recombinant baculovirus was prepared according to the procedure of the Bac-to-Bac baculovirus expression system (Invitrogen).
Sf-21 cells were seeded to achieve 1×10^6 cells/mL in 100 mL of Sf-900 II SFM medium (Invitrogen) which contains 10% fetal calf serum and then cultured at 27° C. for 24 hrs. To express ASK1 in cells, 0.15 mL of the recombinant baculovirus virus stock was added to cells, and the then cultured for 60 hrs. The cells were separated from the culture solution by centrifugation at 3000 rpm for 10 min and washed once with PBS. The cells were suspended in 10 mL of lysis buffer (25 mM HEPES (pH 7.5), 1% Triton X, 130 mM NaCl, 1 mM EDTA, 1 mM DTT, 25 mM β-glycerophosphate, Protease inhibitor complete (Roche), 1 mM sodium orthovanadate) and ruptured by four times of treatment with a homogenizer (POLYTRON) at 20000 rpm for 30 seconds. Active ASK1 protein was purified from a supernatant obtained by centrifugal separation at 40000 rpm for 45 min using anti-FLAG M2 Affinity Gel (Sigma).
The test compounds (2.5 μl) dissolved in DMSO were added to wells containing 37.5 μl of the reaction solution (25 mM HEPES (pH 7.5), 10 mM magnesium acetate, 1 mM DTT) including 30 ng of active ASK1 protein and 1 μg of myelin basic protein (Wako), and incubated at room temperature for 5 min. To start the reaction, 10 μL of ATP solution (2.5 μM ATP, 0.1 μCi [γ-^32P]ATP) was added to wells. After incubating at room temperature for 30 min, the reaction was terminated by adding 50 μl of 20% TCA solution. The reaction solution was incubated at 4° C. for 30 min and an acid-insoluble fraction was transferred onto a GF/C filter (Packard) with Cell Harvester (Packard), and washed with 250 mM phosphoric acid. After drying at 45° C. for 60 min., 40 μL of Microscint 0 (Packard) was added and the radioactivity was measured with TopCount (Packard). The concentrations (IC50 value) of the test compounds necessary for 50% inhibition of kinase activity were calculated by PRISM 3.0 (Graphpad Software).
The enzyme activities of selected compounds of the present invention against ASK1 were determined using the assay disclosed in Example A and B. The resulted pIC50 values are reported in Table 1.

IC50, < 100 nM:
Cc1cc2nc(NC(=O)[C@@H]3C[C@H]3c3ccc(F)cc3)cc(-c3ccccc3)n2n1 (racemic) [Compound 359, trans-2-(4-Fluorophenyl)-N-(2-methyl-7-phenylpyrazolo[1,5-a]pyrimidin-5-yl)cyclopropanecarboxamide]
CC(=O)NC1CCN(c2cc(NC(=O)[C@@H]3C[C@H]3c3ccc(F)cc3)nc3cc(C)nn23)CC1 (racemic) [Compound 361, N-(7-(4-acetamidopiperidin-1-yl)-2-methylpyrazolo[1,5-a]pyrimidin-5-yl)-2-(4-fluorophenyl)cyclopropanecarboxamide]
Cc1cc2nc(NC(=O)[C@@H]3C[C@H]3c3ccc(F)cc3)cc(N3CCC(NC(N)=O)CC3)n2n1 (racemic) [Compound 362, 2-(4-fluorophenyl)-N-(2-methyl-7-(4-ureidopiperidin-1-yl)pyrazolo[1,5-a]pyrimidin-5-yl)cyclopropanecarboxamide]
Cc1cc2nc(NC(=O)c3ccc(C(C)(C)C)cc3)cc(-c3cccc(CO)c3)n2n1 [Compound 1, 4-tert-butyl-N-(7-(3-(hydroxymethyl)phenyl)-2-methylpyrazolo[1,5-a]pyrimidin-5-yl)benzamide]
CC(C)(C)c1ccc(C(=O)Nc2cc(-c3cccs3)n3nccc3n2)cc1 [Compound 2, 4-tert-butyl-N-(7-(thiophen-2-yl)pyrazolo[1,5-a]pyrimidin-5-yl)benzamide]
Cc1cc2nc(NC(=O)c3ccc(C(C)(C)C)cc3)cc(-c3cccc(CCCO)c3)n2n1 [Compound 3, 4-(tert-butyl)-N-(7-(3-(3-hydroxypropyl)phenyl)-2-methylpyrazolo[1,5-a]pyrimidin-5-yl)benzamide]
Cc1cc2nc(NC(=O)c3ccc(C(C)(C)C)cc3)cc(-c3ccc(F)c(CO)c3)n2n1 [Compound 4, 4-tert-butyl-N-(7-(4-fluoro-3-(hydroxymethyl)phenyl)-2-methylpyrazolo[1,5-a]pyrimidin-5-yl)benzamide]
CC(C)(C)c1ccc(C(=O)Nc2cc(-c3cccc(CO)c3)n3nccc3n2)cc1 [Compound 5, 4-tert-butyl-N-(7-(3-(hydroxymethyl)phenyl)pyrazolo[1,5-a]pyrimidin-5-yl)benzamide]
CC(C)(O)c1ccc(C(=O)Nc2cc(-c3cccc(CO)c3)n3nccc3n2)cc1 [Compound 6, N-(7-(3-(hydroxymethyl)phenyl)pyrazolo[1,5-a]pyrimidin-5-yl)-4-(2-hydroxypropan-2-yl)benzamide]
CC(O)(c1ccc(C(=O)Nc2cc(-c3cccc(CO)c3)n3nccc3n2)cc1)C(F)(F)F (centres unmarked) [Compound 7, N-(7-(3-(hydroxymethyl)phenyl)pyrazolo[1,5-a]pyrimidin-5-yl)-4-(1,1,1-trifluoro-2-hydroxypropan-2-yl)benzamide]
COc1ccc(-c2cc(NC(=O)c3ccc(C(C)(C)C)cc3)nc3ccnn23)cc1 [Compound 9, 4-tert-Butyl-N-(7-(4-methoxyphenyl)pyrazolo[1,5-a]pyrimidin-5-yl)benzamide]
CC(C)(C)c1ccc(C(=O)Nc2cc(-c3cccc(CCO)c3)n3nccc3n2)cc1 [Compound 10, 4-tert-butyl-N-(7-(3-(2-hydroxyethyl)phenyl)pyrazolo[1,5-a]pyrimidin-5-yl)benzamide]
CC(C)(C)c1ccc(C(=O)Nc2cc(-c3cccc(CCCO)c3)n3nccc3n2)cc1 [Compound 11, 4-tert-Butyl-N-(7-(3-(3-hydroxypropyl)phenyl)pyrazolo[1,5-a]pyrimidin-5-yl)benzamide]
COc1cccc(-c2cc(NC(=O)c3ccc(C(C)(C)C)cc3)nc3ccnn23)c1 [Compound 15, 4-tert-Butyl-N-(7-(3-methoxyphenyl)pyrazolo[1,5-a]pyrimidin-5-yl)benzamide]
CC(C)(O)c1ccc(C(=O)Nc2cc(-c3ccccc3)n3nccc3n2)cc1 [Compound 16, 4-(2-Hydroxypropan-2-yl)-N-(7-phenylpyrazolo[1,5-a]pyrimidin-5-yl)benzamide]
COc1ccc(-c2cc(NC(=O)c3ccc(C(C)(C)O)cc3)nc3ccnn23)cc1 [Compound 19, 4-(2-Hydroxypropan-2-yl)-N-(7-(4-methoxyphenyl)pyrazolo[1,5-a]pyrimidin-5-yl)benzamide]
Cc1ccc(-c2cc(NC(=O)c3ccc(C(C)(C)O)cc3)nc3ccnn23)cc1 [Compound 20, 4-(2-Hydroxypropan-2-yl)-N-(7-p-tolylpyrazolo[1,5-a]pyrimidin-5-yl)benzamide]
CSc1ccc(-c2cc(NC(=O)c3ccc(C(C)(C)O)cc3)nc3ccnn23)cc1 [Compound 23, 4-(2-hydroxypropan-2-yl)-N-(7-(4-(methylthio)phenyl)pyrazolo[1,5-a]pyrimidin-5-yl)benzamide]

IC50, 100 to 1000 nM:
CC(=O)Nc1ccc(-c2cc(NC(=O)c3ccc(C(C)(C)C)cc3)nc3ccnn23)cn1 [Compound 14, N-(7-(6-Acetamidopyridin-3-yl)pyrazolo[1,5-a]pyrimidin-5-yl)-4-tert-butylbenzamide]
CC(C)(O)c1ccc(C(=O)Nc2cc(-c3cccc(NS(C)(=O)=O)c3)n3nccc3n2)cc1 [Compound 17, 4-(2-Hydroxypropan-2-yl)-N-(7-(3-(methylsulfonamido)phenyl)pyrazolo[1,5-a]pyrimidin-5-yl)benzamide]
CC(C)(O)c1ccc(C(=O)Nc2cc(-c3ccoc3)n3nccc3n2)cc1 [Compound 18, N-(7-(Furan-3-yl)pyrazolo[1,5-a]pyrimidin-5-yl)-4-(2-hydroxypropan-2-yl)benzamide]
CC(C)(O)c1ccc(C(=O)Nc2cc(-c3cccc(CC#N)c3)n3nccc3n2)cc1 [Compound 21, N-(7-(3-(cyanomethyl)phenyl)pyrazolo[1,5-a]pyrimidin-5-yl)-4-(2-hydroxypropan-2-yl)benzamide]
CC(C)(O)c1ccc(C(=O)Nc2cc(-c3ccc(C(N)=O)cc3)n3nccc3n2)cc1 [Compound 22, N-(7-(4-carbamoylphenyl)pyrazolo[1,5-a]pyrimidin-5-yl)-4-(2-hydroxypropan-2-yl)benzamide]

IC50, > 1000 nM:
CC(C)(C)c1ccc(C(=O)Nc2cc(-c3ccc(S(C)(=O)=O)cc3)n3nccc3n2)cc1 [Compound 8, 4-tert-butyl-N-(7-(4-(methylsulfonyl)phenyl)pyrazolo[1,5-a]pyrimidin-5-yl)benzamide]
CC(=O)c1cccc(-c2cc(NC(=O)c3ccc(C(C)(C)C)cc3)nc3ccnn23)c1 [Compound 12, N-(7-(3-Acetylphenyl)pyrazolo[1,5-a]pyrimidin-5-yl)-4-tert-butylbenzamide]
COc1ccc(-c2cc(NC(=O)c3ccc(C(C)(C)C)cc3)nc3ccnn23)cn1 [Compound 13, 4-tert-Butyl-N-(7-(6-methoxypyridin-3-yl)pyrazolo[1,5-a]pyrimidin-5-yl)benzamide]
